How the values were obtained:
[1] = molecular target: PBR (peripheral benzodiazepine binding sites, rat kidney mitochondrial membranes) (Rattus norvegicus, UniProt P16257); experiment: [3H]-PK 11195 binding, peripheral benzodiazepine receptor; settings: 10 and 100 μM
[2] = system: CBR (central benzodiazepine binding sites, rat cerebral cortex membranes); experiment: [3H] Ro 15-1788 binding, central benzodiazepine receptor; settings: 10 and 100 μM

Sequence of PBR (peripheral benzodiazepine binding sites, rat kidney mitochondrial membranes) (P16257 whole entry): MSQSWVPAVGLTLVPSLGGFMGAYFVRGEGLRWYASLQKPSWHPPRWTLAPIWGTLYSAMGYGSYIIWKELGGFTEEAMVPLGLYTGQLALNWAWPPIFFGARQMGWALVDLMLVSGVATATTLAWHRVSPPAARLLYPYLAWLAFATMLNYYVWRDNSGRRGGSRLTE

Compound	affinity for PBR [1]	affinity for CBR [2]
CCC(C)N(C)C(=O)c1cc2ccccc2c(-c2ccccc2Cl)n1 (stereo not shown) [PK 11195, 1-(2-chlorophenyl)-N-methyl-N-(1-methylpropyl)-3-isoquinoline carboxamide]	high affinity	–
CCOC(=O)c1ncn2c1CN(C)C(=O)c1cc(F)ccc1-2 [Ro 15–1788]	–	high affinity
CN1C(=O)CN=C(c2ccccc2)c2cc(Cl)ccc21 [diazepam]	high affinity	high affinity

From article PMC3822689 (Journal of Cellular and Molecular Medicine, 2012)
